{"source": "patent US10815197B2", "about": "“N-sulfonyl benzamides as voltage-gated sodium channel inhibitors” (SHANGHAI HAIYAN PHARMACEUTICAL TECHNOLOGY CO., LTD., priority 2016, dated 2020)"}
{"biological_target": "T1, hCav3.2 (Homo sapiens, UniProt O95180)", "T1 construct": "host or cells: HEK", "T1 sequence (O95180 whole entry)": "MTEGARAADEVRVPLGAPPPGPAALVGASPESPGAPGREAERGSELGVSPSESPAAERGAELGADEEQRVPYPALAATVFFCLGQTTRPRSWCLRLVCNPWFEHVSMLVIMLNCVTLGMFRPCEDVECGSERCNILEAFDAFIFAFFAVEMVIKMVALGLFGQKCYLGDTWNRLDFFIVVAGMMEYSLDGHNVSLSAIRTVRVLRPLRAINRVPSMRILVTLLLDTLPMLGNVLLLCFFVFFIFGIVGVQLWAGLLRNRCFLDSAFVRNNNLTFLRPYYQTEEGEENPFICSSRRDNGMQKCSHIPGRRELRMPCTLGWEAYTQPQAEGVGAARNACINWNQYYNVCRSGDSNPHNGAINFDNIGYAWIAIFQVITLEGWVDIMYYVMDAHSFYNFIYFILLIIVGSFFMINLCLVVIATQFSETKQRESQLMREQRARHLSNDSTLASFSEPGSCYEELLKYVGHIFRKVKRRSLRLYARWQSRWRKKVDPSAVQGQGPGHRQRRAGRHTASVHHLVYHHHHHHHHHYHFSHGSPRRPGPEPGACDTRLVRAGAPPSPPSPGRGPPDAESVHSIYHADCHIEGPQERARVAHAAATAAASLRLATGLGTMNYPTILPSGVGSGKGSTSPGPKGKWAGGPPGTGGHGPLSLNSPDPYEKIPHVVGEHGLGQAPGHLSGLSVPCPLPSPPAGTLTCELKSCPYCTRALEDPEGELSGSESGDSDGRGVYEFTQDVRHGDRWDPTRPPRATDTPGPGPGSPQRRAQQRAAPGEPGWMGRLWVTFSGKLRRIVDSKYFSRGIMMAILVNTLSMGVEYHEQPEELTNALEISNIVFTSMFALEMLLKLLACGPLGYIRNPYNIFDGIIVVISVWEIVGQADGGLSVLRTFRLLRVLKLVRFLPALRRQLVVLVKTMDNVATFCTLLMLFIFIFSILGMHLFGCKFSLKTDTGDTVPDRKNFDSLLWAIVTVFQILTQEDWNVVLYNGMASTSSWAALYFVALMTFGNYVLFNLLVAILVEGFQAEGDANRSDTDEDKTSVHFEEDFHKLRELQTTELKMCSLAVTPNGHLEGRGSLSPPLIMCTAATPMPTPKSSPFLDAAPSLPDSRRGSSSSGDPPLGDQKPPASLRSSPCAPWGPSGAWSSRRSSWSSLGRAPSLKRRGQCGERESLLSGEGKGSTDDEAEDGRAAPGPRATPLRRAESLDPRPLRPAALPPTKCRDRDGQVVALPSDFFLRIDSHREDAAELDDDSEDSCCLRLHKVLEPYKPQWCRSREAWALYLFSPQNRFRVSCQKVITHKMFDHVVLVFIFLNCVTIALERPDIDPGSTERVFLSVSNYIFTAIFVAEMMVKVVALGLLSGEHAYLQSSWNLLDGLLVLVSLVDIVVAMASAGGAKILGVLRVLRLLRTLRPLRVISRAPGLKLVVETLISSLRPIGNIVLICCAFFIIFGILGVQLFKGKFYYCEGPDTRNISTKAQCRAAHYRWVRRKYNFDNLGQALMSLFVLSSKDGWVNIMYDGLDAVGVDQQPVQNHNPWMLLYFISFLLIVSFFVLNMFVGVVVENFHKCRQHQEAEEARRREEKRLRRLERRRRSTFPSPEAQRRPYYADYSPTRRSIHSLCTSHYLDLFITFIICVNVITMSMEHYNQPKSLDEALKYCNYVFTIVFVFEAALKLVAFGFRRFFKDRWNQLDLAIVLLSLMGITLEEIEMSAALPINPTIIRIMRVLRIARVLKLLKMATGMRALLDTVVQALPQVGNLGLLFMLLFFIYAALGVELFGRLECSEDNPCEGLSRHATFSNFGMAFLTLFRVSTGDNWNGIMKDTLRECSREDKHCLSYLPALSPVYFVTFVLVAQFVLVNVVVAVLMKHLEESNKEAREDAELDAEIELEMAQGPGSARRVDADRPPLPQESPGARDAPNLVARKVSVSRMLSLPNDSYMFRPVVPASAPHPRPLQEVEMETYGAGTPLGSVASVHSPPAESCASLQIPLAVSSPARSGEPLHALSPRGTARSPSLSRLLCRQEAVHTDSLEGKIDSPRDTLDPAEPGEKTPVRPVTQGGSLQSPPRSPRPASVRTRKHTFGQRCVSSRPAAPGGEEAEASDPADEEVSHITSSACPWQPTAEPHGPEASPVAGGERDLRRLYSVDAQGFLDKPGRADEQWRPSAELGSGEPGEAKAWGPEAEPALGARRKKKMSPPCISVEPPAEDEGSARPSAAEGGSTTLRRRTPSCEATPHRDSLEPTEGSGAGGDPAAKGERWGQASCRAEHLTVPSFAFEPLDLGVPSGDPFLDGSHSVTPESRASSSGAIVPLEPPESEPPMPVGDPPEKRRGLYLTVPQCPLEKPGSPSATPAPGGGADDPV", "assay": "Manual patch clamp experiment of hCav3.2 channel (HEK-hCav3.2)", "assay_type": "cell-based", "conditions": "read-out: Cav3.2(IC50/nM)", "protocol": "Manual Patch Clamp Experiment of hCav3.2 Channel: The stable cell line HEK-hCav3.2 used for manual patch clamp experiments was from WuXi Apptec (Shanghai) Company. […] Composition of extracellular fluid (millimoles) in the experiment: HEPES 10, CsCl 6, CaCl2) 2, TEA-Cl 140. The pH was adjusted to 7.4 with CsOH, while the osmotic pressure was adjusted to 310-320 mOsm with sucrose, filtered and stored at 4° C. Composition of the intracellular fluid (millimoles): HEPES 10, CsCl 55, CsSO4 75, MgCl2 10, EGTA 0.1. The pH was adjusted to 7.2 with CsOH, while the osmotic pressure was adjusted to 280-290 mOsm with sucrose, filtered and stored at −20° C. […] Manual Patch Clamp Experiment: The cell suspension was added to a 35 mm petri dish and placed on an inverted microscope stage. The cells were perfused with an extracellular fluid and the flow rate was 1-2 mL/min after cell adherence. […] The stimulation program was repeated every 15 s and recorded continuously. The inhibitory effect of the compound was calculated by the change of the current before and after dosing, and the IC50 value was fitted by the Hill equation.", "units": {"IC50": "nM"}}
{"smiles": "Cc1cc(N2CCN(Cc3cc(F)c(C(=O)NS(=O)(=O)C4CC4)cc3Cl)CC2)ccc1Cl", "note": "[Compound Z-164]", "IC50": "> 30000"}
{"biological_target": "T2, hERG potassium ion channel (Homo sapiens, UniProt Q12809)", "T2 construct": "host or cells: CHO", "T2 sequence (Q12809 whole entry)": "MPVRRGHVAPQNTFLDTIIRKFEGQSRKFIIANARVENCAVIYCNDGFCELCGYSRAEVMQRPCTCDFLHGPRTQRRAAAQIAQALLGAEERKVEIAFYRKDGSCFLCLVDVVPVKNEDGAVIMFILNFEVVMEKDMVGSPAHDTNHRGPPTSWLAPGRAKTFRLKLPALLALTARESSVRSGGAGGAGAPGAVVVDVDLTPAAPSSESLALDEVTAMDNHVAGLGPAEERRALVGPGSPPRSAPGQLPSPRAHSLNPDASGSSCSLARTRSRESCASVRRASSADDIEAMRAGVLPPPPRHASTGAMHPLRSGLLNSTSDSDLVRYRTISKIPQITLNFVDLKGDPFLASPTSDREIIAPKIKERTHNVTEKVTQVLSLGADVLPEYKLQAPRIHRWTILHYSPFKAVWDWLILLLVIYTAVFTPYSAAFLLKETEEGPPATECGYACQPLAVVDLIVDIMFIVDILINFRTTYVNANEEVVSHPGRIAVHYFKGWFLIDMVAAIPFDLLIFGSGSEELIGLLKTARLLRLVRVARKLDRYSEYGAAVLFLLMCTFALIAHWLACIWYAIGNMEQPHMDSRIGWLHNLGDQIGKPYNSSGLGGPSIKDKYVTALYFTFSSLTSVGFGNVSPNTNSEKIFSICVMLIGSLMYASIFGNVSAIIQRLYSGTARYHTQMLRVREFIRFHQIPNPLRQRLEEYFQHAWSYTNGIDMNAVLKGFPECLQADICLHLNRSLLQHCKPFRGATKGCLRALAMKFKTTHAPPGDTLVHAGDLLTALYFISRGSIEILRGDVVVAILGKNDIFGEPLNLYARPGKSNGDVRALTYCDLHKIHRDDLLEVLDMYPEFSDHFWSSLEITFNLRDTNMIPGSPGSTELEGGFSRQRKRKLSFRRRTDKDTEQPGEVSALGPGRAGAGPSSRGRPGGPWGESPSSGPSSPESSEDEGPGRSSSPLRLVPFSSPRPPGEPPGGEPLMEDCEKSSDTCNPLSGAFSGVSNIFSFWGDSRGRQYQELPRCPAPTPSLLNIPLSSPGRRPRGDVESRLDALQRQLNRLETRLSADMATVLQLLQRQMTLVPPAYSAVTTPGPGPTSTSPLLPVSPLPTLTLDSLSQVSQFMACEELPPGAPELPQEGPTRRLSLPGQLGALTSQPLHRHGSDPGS", "assay": "Effect on hERG potassium ion channel (CHO hERG cells, manual patch clamp)", "assay_type": "cell-based", "conditions": "final 10 μM test concentration, read-out: hERG inhibitory concentration IC50", "protocol": "Assay 2: Effect on hERG Potassium Ion Channel 2.1 Cell Culture 2.1.1 Cells used in this experiment were CHO cell lines (supplied by Sophion Bioscience, Denmark) which were hERG cDNA transfectant and stably express hERG channels, and cell progeny was P15. Cells were cultured in medium containing the following ingredients Invitrogen): Ham's F12 medium, 10% (v/v) inactivated fetal bovine serum, […] Geneticin. 2.1.2 CHO hERG cells were grown in Petri dishes containing the above medium and cultured in an incubator containing 5% CO2 at 37° C. CHO hERG cells were transferred onto round glass plates in Petri dishes, and grown on the same culture medium under culture conditions as above for 24 h to 48 h prior to the electrophysiological experiments, and the density of CHO hERG cells on each round glass plate needs to meet the requirements that the vast majority of cells are independent and individual. 2.2 Experimental Solution The following solutions (supplied by Sophion) were used for electrophysiological recording as shown in Table 3. The reagents used in this test were provided by Sigma. [table] 2.3 Electrophysiological Recording System In this experiment, whole-cell current recording was performed using a manual patch clamp system (HEKA EPC-10 signal amplification and digital conversion system, purchased from HEKA Electronic, Germany). The round glass slide, surface of which CHO hERG cells were grown on was placed in an electrophysiological recording slot under an inverted microscope. Extracellular fluid was used for steady perfision in recording slot (approximately 1 ml per minute). A conventional whole-cell patch clamp current recording technique was used in the experiment. Unless otherwise specified, experiments were performed at normal room temperature (25° C.). Cell clamping was at −80 mV. Cell clamping voltage depolarized to +20 mV to activate hERG potassium channel, clamping to −50 mV after 5 sec to eliminate inactivation and generate tail currents. The tail current peak was used as a value for hERG current. The hERG potassium current recorded in the above steps could be superfused for test drug after the steady perfusion state of the extracellular fluid in the recording slot is stabilized until the inhibition of the hERG current by the drug reached a steady state. The coincidence of the last three consecutive current recording lines was generally used as a criterion to determine whether the state is stable. After reaching a steady state, perfused with extracellular fluid until hERG current returned to the value before the drug adding. One or more drugs could be tested on a single cell, or multiple concentrations of the same drug, but needed to be rinsed with extracellular fluid between different drugs. […] 2.4 Compound Treatment and Dilution The compound was firstly dissolved in DMSO to a concentration of 10 mM and then the compound was diluted 1000-fold to the final […] test concentration using an extracellular solution. The final concentration of DMSO in the compound test solution was equal to 0.1%. […] All stock solutions and test solutions were subjected to regular 5-10 minute sonication and shaken to ensure complete dissolution of the compound. 2.5 Data Analysis The test data were analyzed by the data analysis software provided by HEKA Patchmaster (V2x73.2), Microsoft Excel and Graphpad Prism 5.0.", "units": {"IC50": "µM"}}
{"smiles": "Cc1ccc(N2CCN(Cc3cc(F)c(C(=O)NS(=O)(=O)C4CC4)cc3Cl)CC2)cc1Cl", "note": "[Compound Z-177]", "IC50": "> 10"}
{"smiles": "CCc1cc(N2CCN(Cc3cc(F)c(C(=O)NS(=O)(=O)C4CC4)cc3Cl)CC2)ccc1Cl", "note": "[Compound Z-178]", "IC50": "> 10"}
{"smiles": "C[C@@H]1CN(c2ccc(Cl)c(Cl)c2)CCN1Cc1cc(F)c(C(=O)NS(=O)(=O)C2CC2)cc1Cl", "note": "[Compound Z-172, (R)-5-Chloro-N-(cyclopropylsulfonyl)-4-((4-(3,4-dichlorophenyl)-2-methylpiperazin-1-yl)methyl)-2-fluorobenzamide]", "IC50": "> 10"}
{"smiles": "O=C(NS(=O)(=O)C1CC1)c1cc(Cl)c(CN2CCN(c3ccc(C4CC4)c(Cl)c3)CC2)cc1F", "note": "[Compound Z-173]", "IC50": "> 10"}
{"smiles": "CCc1cc(C(=O)NS(=O)(=O)C2CC2)c(F)cc1CN1CCN(c2ccc(OC(F)(F)F)cc2)CC1", "note": "[Compound Z-189, N-(cyclopropylsulfonyl)-5-ethyl-2-fluoro-4-((4-(4-(trifluoromethoxy)phenyl)piperazin-1-yl)methyl)benzamide]", "IC50": "> 10"}
